Test systems include Candida krusei ATCC 6258; Escherichia coli IS117#; Escherichia coli IS37#; Shigella dysenteriae; Escherichia coli IS218#; Aspergillus nidulans; Escherichia coli; Staphylococcus aureus; Candida albicans; Candida glabrata; Streptococcus agalactiae; Escherichia coli D31.
What all share (assay): ≥ marks a high value that may be exact or a test limit, other limits are often not marked, values filed in µg/mL are converted to µM
Assay [1] relates to Enterobacter cloacae ATCC 13047.
Assay [2] relates to Escherichia coli ATCC 25922.
Assay [3] has as its system Pseudomonas aeruginosa ATCC 27853.
Assay [4] concerns Enterococcus faecalis ATCC 4028.
Assay [5] deals with Candida albicans ATCC 90028.
Assay [6] has as its system Staphylococcus aureus ATCC 29213.
Assay [7] concerns Staphylococcus aureus ATCC 33591.
For assay [8], the system named is Enterococcus faecalis ATCC 29212.
Assay [9] concerns Candida glabrata ATCC 90030.
For assay [10], the system named is Staphylococcus aureus S015.
The test system of assay [11] is Staphylococcus epidermidis ATCC 12228.
Assay [12] has as its system Salmonella enterica subsp. enterica serovar Typhimurium ATCC 14028.
Assay [13] has as its system Klebsiella pneumoniae ATCC 10031.
In assay [14] the test system is Escherichia coli ATCC 11219.
For assay [15], the system named is Staphylococcus aureus ATCC 6538.
Assay [16] has as its system Pseudomonas aeruginosa ATCC 13388.
Assay [17] has as its system Pseudomonas aeruginosa CMCCB 1010.
Assay [18] concerns Staphylococcus aureus IS37#.
Assay [19] relates to Candida parapsilosis ATCC 22019.
The test system of assay [20] is Pseudomonas aeruginosa IS350#.
The subject of assay [21] is Staphylococcus aureus ATCC 25923.
Assay [22] deals with Klebsiella pneumoniae ATCC 700603.
Assay [23] relates to Candida albicans ATCC 2002.
For assay [24], the system named is Staphylococcus aureus IS10#.
Assay [25] concerns Klebsiella pneumoniae IS59#.
Assay [26] deals with Pseudomonas aeruginosa ATCC 9027.
Assay [27] concerns Mycobacterium tuberculosis.
For assay [28], the system named is Mycobacterium tuberculosis H37Rv.
Assay [29] deals with Micrococcus luteus DSM 20030.

Values after ≈ are worked out from the molar mass of the structure shown. Values joined by “and” are separate entries in the source; they are usually repeats but may differ in a detail not shown here. Equal values may be shown once. Where only a bound is given, the exact number is not on record here.

The source of these data is DBAASP.

One may read the MIC as the smallest concentration in the dilution series that meets the test's criterion for growth inhibition. A lower MIC goes with a more susceptible organism.

As to `CC[C@H](C)[C@H](NC(=O)[C@H](CC(C)C)NC(=O)CNC(=O)CNC(=O)[C@@H](NC(=O)[C@H](CC(C)C)NC(=O)[C@H](CO)NC(=O)[C@@H]1CCCN1C(=O)[C@@H](NC(=O)[C@H](CC(C)C)NC(=O)[C@H](CO)NC(=O)[C@H](Cc1ccccc1)NC(=O)[C@@H](N)Cc1ccccc1)[C@@H](C)CC)C(C)C)C(=O)N[C@@H](CO)C(=O)N[C@@H](C)C(=O)N[C@@H](Cc1ccccc1)C(=O)N[C@@H](CCCCN)C(N)=O` [FFSLIPSLVGGLISAFK], the MIC in [1] was no less than 150 µM; in assay [2] it was greater than 139 µM; in [3], greater than 150 µM; in [4], no less than 150 µM; in assay [5], no less than 34.8 µM; in the assay with Candida krusei ATCC 6258, no less than 69.5 µM. The MIC was 8.68 µM and 9.37 µM in assay [6]; 17.4 µM (≈ 31.2 µg/mL) in assay [7]; greater than 139 µM in [8]; no less than 69.5 µM in assay [9]; no less than 139 µM in [10]; 9.38 µM and 9.37 µM in assay [11].

In the case of `CC[C@H](C)[C@H](NC(=O)[C@H](CC(=O)O)NC(=O)[C@H](Cc1cnc[nH]1)NC(=O)[C@H](C)NC(=O)CN)C(=O)N[C@@H](CC(C)C)C(=O)N[C@@H](CCCCN)C(=O)N[C@@H](Cc1ccc(O)cc1)C(=O)NCC(=O)N[C@@H](CCCCN)C(=O)N1CCC[C@H]1C(=O)N[C@@H](CO)C(N)=O` [GAHDILKYGKPS], the minimal inhibitory concentration (MIC) in [12] is greater than 50 µM; in [13], no less than 50 µM; in assay [14] it was no less than 50 µM; in [15], 30 µM (≈ 38.5 µg/mL); in assay [16] it was no less than 50 µM.

Regarding `CC[C@H](C)[C@H](NC(=O)CNC(=O)[C@H](CO)NC(=O)[C@H](CC(C)C)NC(=O)[C@H](CC(C)C)NC(=O)CN)C(=O)N[C@@H](CC(C)C)C(=O)NCC(=O)N[C@@H](C)C(=O)NCC(=O)N[C@@H](CCCCN)C(=O)N[C@@H](CCCN=C(N)N)C(=O)N[C@H](C(=O)N[C@H](C(=O)N[C@H]1CSSC[C@@H](C(=O)O)NC(=O)[C@H](CC(C)C)NC(=O)CNC(=O)[C@H](CO)NC(=O)[C@H](CC(C)C)NC(=O)CNC1=O)C(C)C)[C@@H](C)CC` [GLLSGILGAGKRIVCGLSGLC], the MIC in assay [17] was found to be 0.503 µM (≈ 0.999 µg/mL); in [1] it was 2.52 µM (≈ 5 µg/mL); in assay [2], 2.52 µM (≈ 5 µg/mL); in assay [18] it was 5.03 µM (≈ 9.99 µg/mL); in assay [19] it was 2.52 µM (≈ 5 µg/mL); in [3], 5.03 µM (≈ 9.99 µg/mL). The MIC against Escherichia coli IS117# was 5.03 µM (≈ 9.99 µg/mL); in assay [20], 10.1 µM (≈ 20 µg/mL); with Escherichia coli IS37# it was 5.03 µM (≈ 9.99 µg/mL); in assay [5], 1.26 µM (≈ 2.5 µg/mL); in assay [21], 5.03 µM (≈ 9.99 µg/mL); in assay [22], 0.503 µM (≈ 0.999 µg/mL). The MIC in the assay on Shigella dysenteriae is 5.03 µM (≈ 9.99 µg/mL); in assay [23] it was 1.01 µM (≈ 2 µg/mL); against Escherichia coli IS218#, 10.1 µM (≈ 20 µg/mL); in [8] it was 5.03 µM (≈ 9.99 µg/mL); in assay [24] it was 2.52 µM (≈ 5 µg/mL); in [25], 10.1 µM (≈ 20 µg/mL).

With `CC[C@H](C)[C@H](NC(=O)[C@H](CO)NC(=O)[C@@H]1CCCN1C(=O)[C@H](CCCN=C(N)N)NC(=O)[C@H](Cc1c[nH]c2ccccc12)NC(=O)[C@H](Cc1c[nH]c2ccccc12)NC(=O)[C@H](Cc1ccc(O)cc1)NC(=O)[C@H](CCC(N)=O)NC(=O)[C@H](CCCCN)NC(=O)[C@H](CC(C)C)NC(=O)[C@@H]1CCCN1C(=O)[C@@H](N)Cc1cnc[nH]1)C(=O)O` [HPLKQYWWRPSI], the MIC was 21.9 µM (≈ 35.4 µg/mL) in the assay on Aspergillus nidulans, greater than 125 µM in the assay with Escherichia coli, greater than 125 µM against Staphylococcus aureus and 11 µM (≈ 17.7 µg/mL) against Candida albicans.

`CC[C@H](C)[C@H](NC(=O)[C@H](CCCCN)NC(=O)[C@H](CCCCN)NC(=O)[C@@H](NC(=O)[C@H](C)NC(=O)[C@H](CO)NC(=O)[C@@H](NC(=O)[C@H](C)NC(=O)[C@H](CO)NC(=O)[C@@H]1CCCN1C(=O)[C@@H](NC(=O)[C@H](CC(C)C)NC(=O)[C@H](CO)NC(=O)[C@H](CC(C)C)NC(=O)[C@H](CC(C)C)NC(=O)[C@H](Cc1ccccc1)NC(=O)[C@H](Cc1ccccc1)NC(=O)[C@@H]1CCCN1C(=O)[C@@H](N)CC(C)C)[C@@H](C)CC)[C@@H](C)CC)[C@@H](C)CC)C(N)=O` [LPFFLLSLIPSAISAIKKI]: the MIC in the assay on Candida glabrata was no less than 50 µM; in assay [2], 24 µM (≈ 49.7 µg/mL); in assay [26] it was 2.5 µM (≈ 5.18 µg/mL); against Streptococcus agalactiae, 2.5 µM (≈ 5.18 µg/mL); in assay [21] it was 2.5 µM (≈ 5.18 µg/mL); in assay [27] it was 4.8 µM (≈ 9.94 µg/mL). The figures for the MIC (in assay [28]; with Candida albicans) were 17.4 µM (≈ 36 µg/mL) and 6.25 µM (≈ 12.9 µg/mL), respectively.

In the case of `CC[C@H](C)[C@H](NC(=O)[C@H](Cc1c[nH]c2ccccc12)NC(=O)[C@@H](N)CO)C(=O)N[C@@H](CCCCN)C(=O)N[C@@H](CCCCN)C(=O)N[C@@H](CC(=O)O)C(=O)N[C@@H](CCCCN)C(=O)N[C@@H](Cc1ccccc1)C(=O)N1CCC[C@H]1C(=O)N[C@@H](CO)C(=O)N[C@@H](CO)C(=O)N[C@H](C(=O)NCC(=O)N1CCC[C@H]1C(=O)N[C@@H](Cc1ccc(O)cc1)C(=O)N[C@@H](CC(N)=O)C(=O)N1CCC[C@H]1C(=O)N[C@@H](CC(N)=O)C(=O)N1CCC[C@H]1C(=O)N1CCC[C@H]1C(=O)N1CCC[C@H]1C(=O)N1CCC[C@H]1C(=O)N[C@@H](CCCN=C(N)N)C(=O)N[C@@H](Cc1ccccc1)C(=O)O)[C@@H](C)O` [SWIKKDKFPSSTGPYNPNPPPPRF], the MIC (with Escherichia coli D31; in assay [29]) was no less than 100 µM throughout.
